The structures appear in SMILES notation. Structures can show the parent of a compound that is named as a salt. Where only a bound is given, the exact number is not on record here.

Drawing on patent publication US10774074B2, “2-(1-heteroarylpiperazin-4-yl)methyl-1,4-benzodioxane derivatives as alpha2C antagonists” (ORION CORPORATION, priority 2015, dated 2020), this text covers Kb and IC50 for 10 compounds.

For one assay, the target named is T1, human alpha2A receptors (Homo sapiens, UniProt P08913).
T1 construct: host or cells: CHO cells, cotransfected with pCEP-Gα16
T1 sequence (P08913 1-465): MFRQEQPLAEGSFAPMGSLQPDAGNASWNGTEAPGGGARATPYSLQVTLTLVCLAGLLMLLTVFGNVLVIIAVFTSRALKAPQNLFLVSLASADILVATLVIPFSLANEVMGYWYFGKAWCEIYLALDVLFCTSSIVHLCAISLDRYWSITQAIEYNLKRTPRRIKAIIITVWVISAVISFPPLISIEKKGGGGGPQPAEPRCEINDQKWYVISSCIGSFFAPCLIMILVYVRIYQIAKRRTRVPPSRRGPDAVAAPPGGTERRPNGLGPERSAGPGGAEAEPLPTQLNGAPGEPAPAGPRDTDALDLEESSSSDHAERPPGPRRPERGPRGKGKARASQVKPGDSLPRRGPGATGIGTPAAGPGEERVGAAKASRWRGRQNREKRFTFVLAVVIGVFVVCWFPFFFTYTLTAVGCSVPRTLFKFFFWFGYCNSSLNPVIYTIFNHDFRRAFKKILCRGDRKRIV
Briefly: Determination of alpha2A antagonistic activity in vitro (FLIPR calcium assay, CHO cells). It is filed as cell-based. To be noted: for Kb: Kb calculated with the Cheng-Prusoff equation from IC50, adrenaline as agonist, CHO cells, human alpha2A, read-out: Alpha 2A Adrenaline Kb; for IC50: antagonism of adrenaline stimulation, CHO cells stably transfected with human alpha2A receptor and Gα16, intracellular calcium (FLIPR), read-out: Alpha 2A Adrenaline IC50. The protocol:
(§1) EXPERIMENT 1: Determination of alpha2A and alpha2C Antagonistic Activity In Vitro
(§2) Chinese hamster ovary (CHO) cells stably transfected with human alpha2A or alpha2C receptors (University of Turku, Finland) were cotransfected with the expression vector pCEP-Gα16 (Molecular Devices, CA, USA) were used in this experiment. The cells were maintained at 37° C. in a 5% CO2/95% air atmosphere. The cells were cultured in HAM F-12 medium supplemented with 10% FCS, 25 mM HEPES, 100 IU/ml penicillin, 100 µg/ml streptomycin, 500 μg/ml geneticin and 240 μg/ml hygromycin B. The cells were subcultured twice weekly with 0.25% trypsin and 1 mM EDTA. The subculture ratio was 1:5-1:20. The growth medium was changed every 2 or 3 days. All cell culture reagents were from Gibco. The day before the experiment the cells were plated into black-walled, clear bottom 384-well plates at a density of 10,000 cells/well.
(§3) The growth medium was removed and the cells were incubated with the test compounds and the FLIPR Calcium 6 Assay reagent (Molecular Devices, CA, USA) for 2 h at 37° C. in dark. The test compounds (concentrations in cells 100 pM-10 μM) were dissolved in Probenecid-Ringer consisting of 150 mM NaCl, 3 mM KCl, 1.2 mM MgCl2, 1 mM CaCl2, 5 mM glucose, 20 mM HEPES and 2.5 mM probenecid (pH 7.4 adjusted with 1.0 M NaOH). The osmolarity was adjusted to 322 milliosmoles with Osmostat® OM-6020 osmometer (DIC Kyoto Daiichi Kagagu Co. Ltd, Japan). […] All experiments were performed at 37° C. For agonism measurements the test compounds dissolved in Probenecid-Ringer were applied by FLIPR Tetra at 15 s time point. In order to determine antagonism, the cells were stimulated either with 100 nM adrenaline or noradrenaline and the test compounds were added to the cells 2 h before the experiment with the FLIPR Calcium 6 Assay reagent. […] Typically, there were four replicates at each concentration and six different dose levels. For example, if the number of plates from which results were obtained was three, 72 (4*6*3) wells were thus measured to construct dose-response relationship. The samples were excited at 485 nm and emission was detected at 525 nm with a 515 nm cut-off filter. The minimum fluorescence value subtracted from the maximum value for each well was used in the calculations. ScreenWorks version 4.0 software was used for analyzing the results. Fitting of the antagonist dose-response results was performed with the free Hill equation and the IC50 values were fitted with IDBS XE software using model 200: y=(A+(B/(1+((x/C)^D)))), where A is the curve maximum, B the curve minimum and C equals the EC50 value. D is slope factor (Hill). Kb was calculated with the Cheng-Prusoff equation Kb=A/((B/C)+1), where A is the IC50 of antagonist, B the concentration of agonist and C the EC50 of the agonist.

For the next assay, the target named is T2, human alpha2C receptors (Homo sapiens, UniProt P18825).
T2 construct: host or cells: CHO cells, cotransfected with pCEP-Gα16
T2 sequence (P18825 1-462): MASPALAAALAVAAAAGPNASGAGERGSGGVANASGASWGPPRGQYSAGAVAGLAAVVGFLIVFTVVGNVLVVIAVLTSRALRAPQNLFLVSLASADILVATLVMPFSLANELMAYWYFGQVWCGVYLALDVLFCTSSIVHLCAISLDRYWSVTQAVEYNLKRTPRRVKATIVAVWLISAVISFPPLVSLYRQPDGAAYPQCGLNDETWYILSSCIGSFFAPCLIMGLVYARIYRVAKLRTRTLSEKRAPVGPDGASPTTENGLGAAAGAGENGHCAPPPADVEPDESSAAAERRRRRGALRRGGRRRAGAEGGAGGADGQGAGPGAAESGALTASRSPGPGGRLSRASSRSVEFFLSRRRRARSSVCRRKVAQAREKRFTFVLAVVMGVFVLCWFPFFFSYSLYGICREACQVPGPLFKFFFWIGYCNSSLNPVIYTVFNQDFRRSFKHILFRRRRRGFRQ
Briefly: Determination of alpha2C antagonistic activity in vitro (FLIPR calcium assay, CHO cells). To be noted: for Kb: Kb calculated with the Cheng-Prusoff equation from IC50, adrenaline as agonist, CHO cells, human alpha2C, read-out: Alpha 2C Adrenaline Kb; for IC50: antagonism of adrenaline stimulation, CHO cells stably transfected with human alpha2C receptor and Gα16, intracellular calcium (FLIPR), read-out: Alpha 2C Adrenaline IC50. It is filed as cell-based. The protocol:
as §1, §2, §3

Broadly, the Kb is the equilibrium dissociation constant of an antagonist, usually derived from a functional assay. The IC50 is the point on the concentration scale where inhibition reaches its midpoint. Regarding `CNC(=O)c1nsnc1N1CCN(C[C@H]2COc3ccccc3O2)CC1` [Compound of example 29, (S)-4-(4-((2,3-Dihydrobenzo[b][1,4]dioxin-2-yl)methyl)piperazin-1-yl)-N-methyl-1,2,5-thiadiazole-3-carboxamide hydrochloride], at human alpha2A receptors, the Kb is greater than 449 nM and the IC50 is greater than 10000 nM. In addition, at human alpha2C receptors, the Kb is 4210 nM and the IC50 is 424 nM.
In the same order, the values of `O=C1NCCN1c1nsnc1N1CCN(C[C@H]2COc3ccccc3O2)CC1` [Compound of example 30, (S)-1-(4-(4-((2,3-Dihydrobenzo[b][1,4]dioxin-2-yl)methyl)piperazin-1-yl)-1,2,5-thiadiazol-3-yl)imidazolidin-2-one] are greater than 449 nM, greater than 10000 nM, 0.527 nM and 0.054 nM.
With `Cc1nsc(N2CCN(C[C@H]3COc4ccccc4O3)CC2)c1N1CCCC1=O` [Compound of example 31, (S)-1-(5-(4-((2,3-Dihydrobenzo[b][1,4]dioxin-2-yl)methyl)piperazin-1-yl)-3-methylisothiazol-4-yl)pyrrolidin-2-one], the Kb at human alpha2A receptors was greater than 449 nM; at human alpha2C receptors, 1.66 nM. For the same compound, the values for the IC50 on human alpha2A receptors and on human alpha2C receptors were greater than 10000 nM and 0.17 nM, respectively.
`CC(=O)c1nsnc1N1CCN(C[C@H]2COc3ccccc3O2)CC1` [Compound of example 33, (S)-1-(4-(4-((2,3-Dihydrobenzo[b][1,4]dioxin-2-yl)methyl)piperazin-1-yl)-1,2,5-thiadiazol-3-yl)ethanone]: at human alpha2A receptors, the Kb was greater than 449 nM and the concentration for half-maximal inhibition (IC50) is greater than 10000 nM. On human alpha2C receptors, the antagonist equilibrium constant (Kb) is 401 nM and the IC50 was determined as 40.4 nM.
With `CN(C)C(=O)c1nsnc1N1CCN(C[C@H]2COc3ccccc3O2)CC1` [Compound of example 34, (S)-4-(4-((2,3-Dihydrobenzo[b][1,4]dioxin-2-yl)methyl)piperazin-1-yl)-N,N-dimethyl-1,2,5-thiadiazole-3-carboxamide], on human alpha2A receptors, the Kb is greater than 449 nM and the IC50 was greater than 10000 nM. Moreover, at human alpha2C receptors, the Kb is 0.92 nM and the IC50 worked out at 0.09 nM.
Take `c1ccc2c(c1)OC[C@H](CN1CCN(c3nsc4cccnc34)CC1)O2` [Compound of example 36, (S)-3-(4-((2,3-Dihydrobenzo[b][1,4]dioxin-2-yl)methyl)piperazin-1-yl)isothiazolo[4,5-b]pyridine hydrochloride]: at human alpha2A receptors, the Kb is 298 nM and the IC50 is 6650 nM. In addition, on human alpha2C receptors, the Kb is 135 nM and the IC50 turned out to be 13.6 nM.
For `c1ccc(COc2ncccc2Nc2nsnc2N2CCN(C[C@H]3COc4ccccc4O3)CC2)cc1` [Compound of example 37, (S)—N-(2-(Benzyloxy)pyridin-3-yl)-4-(4-((2,3-dihydrobenzo[b][1,4]-dioxin-2-yl)methyl)piperazin-1-yl)-1,2,5-thiadiazol-3-amine hydrochloride] the same measures were greater than 449 nM, greater than 10000 nM, 73.1 nM and 7.36 nM.
With `Cc1cc(N2CCN(C[C@H]3COc4ccccc4O3)CC2)n(-c2ccccn2)n1` [Compound of example 38, (S)-1-((2,3-Dihydrobenzo[b][1,4]dioxin-2-yl)methyl)-4-(3-methyl-1-(pyridin-2-yl)-1H-pyrazol-5-yl)piperazine], at human alpha2A receptors, the Kb is 149 nM and the IC50 was 3320 nM. On human alpha2C receptors, the Kb was 2.28 nM and the IC50 stood at 0.23 nM.
For `COc1cccc(-n2nc(C)cc2N2CCN(C[C@H]3COc4ccccc4O3)CC2)n1` [Compound of example 39, (S)-1-((2,3-Dihydrobenzo[b][1,4]dioxin-2-yl)methyl)-4-(1-(6-methoxypyridin-2-yl)-3-methyl-1H-pyrazol-5-yl)piperazine], the antagonist equilibrium constant (Kb) was 82 nM on human alpha2A receptors and 0.29 nM at human alpha2C receptors. Also, the IC50 on human alpha2A receptors is 1830 nM; on human alpha2C receptors, 0.03 nM.
Take `Cc1cccc(-n2nc(C)cc2N2CCN(C[C@H]3COc4ccccc4O3)CC2)n1` [Compound of example 40, (S)-1-((2,3-Dihydrobenzo[b][1,4]dioxin-2-yl)methyl)-4-(3-methyl-1-(6-methylpyridin-2-yl)-1H-pyrazol-5-yl)piperazine]: on human alpha2A receptors, the Kb is 100 nM and the IC50 turned out to be 2230 nM. Further, on human alpha2C receptors, the Kb is 2.57 nM and the IC50 is 0.26 nM.
